The record followed here is patent US20110129450A1, “METHOD OF PROMOTING NEUROGENESIS BY MODULATING SECRETASE ACTIVITIES” (priority 2008, published 2011).

Entries after “also recorded” stand apart in the source; their conditions may differ.

In one series the test system is PS1. The experiment in a line: Immunoblot of PS1 expression in N2a cells transduced with lentiviral vector. It is filed as cell-based, murine. The conditions noted are these: N2a cells five days following transduction, versus GFP only or irrelevant siRNA; FIG. 6A. The text has this: PS1 siRNA lentiviruses were verified by immunoblot analysis for the reduction of PS1 protein expression in N2a cells transduced with the lentiviral vector. N2a cells were transduced with the purified shRNA vector preparation followed by immunoblot analysis using anti-PS1 polyclonal antibody (Lazarov et al., 2005, J. Neurosci. 25: 2386-95.). Presenilins undergo cleavage in an alpha helical region of one of the cytoplasmic loops to produce a larger N-terminal (“PS1 NTF”) and a smaller C-terminal fragment which together form part of the functional protein. […] PS1 siRNA 4-11 (lane 1) refers to a different PS1 siRNA construct having the siRNA sequence of 5′ GGACCAACTTGCATTCCAT 3′ (SEQ ID NO:18) under the U6 promoter. The samples in lanes 6 and 7 were brain extracts of transgenic mice harboring PS1HWT (wild type human PS1; lane 6) and PS1ΔE9 (human PS1 with exon 9 deleted; lane 7), both of which served as positive controls for PS1 detection.
In general terms: A western blot detects proteins with antibodies after separation by electrophoresis.

The subject of series [1] is neural stem cells isolated from the SVZ of adult wild type mice. The experiment in a line: BrdU proliferation assay of neurosphere cultures treated with ADAM inhibitor. The class given is cell-based. To be noted: treated 48 hours, compared to inactive analog GM6001NK; FIG. 3A.
Method: The role for α-secretase in regulating proliferation of NSCs was examined. Neurosphere cultures were established from neural stem cells isolated from the SVZ of adult wild type mice. […] Thereafter, cells were pulse-labeled with 5 μM BrdU for 24 hours before fixation in 4% paraformaldehyde (PFA). The fixed cells were incubated with anti-BrdU antibodies and then HRP-conjugated secondary antibodies, followed by incubation with the TMD peroxidase substrate (Pierce Protein Research Products, Thermo Scientific, Rockford, Ill.). Signals were detected using a plate reader at 450-595 nm.
In a further series the test system is sAPP. The experiment in a line: Immunoblot of sAPP in conditioned media of treated NSC (22C11 antibody). It is filed as cell-based, mice. The conditions noted are these: NSC cultures, versus GM6001NK; FIG. 3B. The text has this:
APPWT CM represents proliferation results of GM6001-treated cells supplemented with APPWT-conditioned media. (B) Immunoblot analysis of sAPP levels in conditioned media from GM6001- and GM6001NK-treated NSC using the 22C11 antibody.
Results were obtained as percentages of BrdU positive cells in GM6001-treated culture over BrdU positive cells in the control culture treated with DMSO (FIG. 3A). […] To examine the possibility that reduced proliferation was a result of reduced levels of sAPP, GM6001-treated cells were supplemented with conditioned media of neurospheres derived from APPWT mice, in which the α-secretase cleavage product sαAPP was present. […] The secretion levels of sAPP were also examined by immunoblot analysis in the conditioned media of GM6001- or GM6001NK-treated cells.

The subject of series [2] is neurospheres derived from adult mice neural stem cells. The experiment in a line: Neurosphere diameter assay of singly dissociated adult NSCs plated for 8 days. It is filed as cell-based. The conditions noted are these: FIG. 4. An excerpt: Both α- and β-secretases can cleave membrane-bound APP and release the secreted form of APP (sAPP). Proteolytic cleavage of APP by α-secretase releases one form of the secreted APP referred to as sαAPP, whereas cleavage of APP by β-secretase releases a C-terminally truncated sAPP referred to as sβAPP. The significance and difference in the functionality of these two forms of sAPP remains elusive. To distinguish the role of the α or β form of sAPP in promoting neural stem cell proliferation, neurospheres derived from adult mice neural stem cells were dissociated to single cells, plated for 8 days, treated with GM6001 or GM6001NK alone, treated with GM6001 and supplemented with conditioned media from neuroblastoma N2a cells expressing wild type APP, or treated with GM6001 and supplemented with conditioned media from 192 Swe N2a cells. Media conditioned by the neuroblastoma N2a was enriched in sαAPP as the wild type APP expressed in these cells was preferentially processed by α-secretase to produce sαAPP. The 192 Swe N2a conditioned medium was enriched in sβAPP as the 192 Swe N2a cells expressing the Swedish mutant form of APP that was preferentially cleaved by β-secretase. See Bogdanovic et al., 2001, Dement Geriatr. Congn. Discord. 12:364-70.

The subject of series [3] is neurospheres from the SVZ of adult mice. The experiment in a line: BrdU proliferation assay of neurospheres (γ-secretase inhibitor or lentiviral siRNA). It is filed as cell-based. To be noted: 1 μM for 24 hours; FIG. 8A. As for the experimental part: To further establish that reduced expression of PS1 decreased neural stem cell proliferation and induced neural stem cell differentiation, neurospheres established as described above from the SVZ of adult mice were subject to a proliferation assay following the treatment with the γ-secretase inhibitor L-685,458 (1 μM for 24 hours) (Sigma, St. Louis, Mo.). As a comparison, neurospheres were transduced with lentiviral vectors expressing either IR siRNA or PS1 siRNA. The proliferation assay was performed as follows: lentivirally-transduced neurospheres or γ-secretase inhibitor-treated neurospheres were singly dissociated and cultured (10,000 cells/well) with BrdU for 48 hours. BrdU-labeled cells were fixed in 4% PFA and immunolabeled with anti-BrdU antibodies followed by HRP-conjugated secondary antibodies. Thereafter, the cells were incubated with the TMD peroxidase substrate and read on a plate reader at 450-595 nm. […] Results were presented as a percentage of DMSO-treated NSCs.

A further series relates to neural stem cells. The experiment in a line: Neural stem cell differentiation assay on poly-L-ornithine/laminin. It is filed as cell-based, mice. As for the experimental part: The effects of γ-secretase inhibitor L-685,458 on neural stem cell differentiation was analyzed. Neural stem cells were allowed to differentiate when cultured on glass coverslips coated with 10 μg/mL poly-L-ornithine (Sigma, St. Louis, Mo.) and 5-10 μg/mL laminin (Sigma) in media with 5% fetal bovine serum without EGF and FGF.
γ-secretase inhibitor L-685,458-induced differentiation was further analyzed by immunostaining using antibodies to the astrocyte marker GFAP, and the early neural marker nestin. […] Scale bar=[…] (FIG. 8E, representative GFAP staining is marked with single arrows).
The length of the processes developed from the middle of the soma to the axon tip of GFAP positive cells after two days of L-685,458 treatment was analyzed and the results are shown in FIG. 8G. Twenty four hours after culturing whole neurospheres on laminin, vehicle-treated cultures remained mostly as neurospheres with slight cell differentiation (FIG. 8F, top panels).

For “5′ GGACCAACTTGCATTCCAT 3′ (expressed or natural sequence) [PS1 siRNA 4-11]”, the PS1 expression entry in the series with PS1 is recorded as “reduced”.

With `CNC(=O)[C@H](Cc1c[nH]c2ccccc12)NC(=O)[C@@H](CC(=O)NO)CC(C)C` [GM6001], the “BrdU immunoreactivity (BrdU positive cells relative to DMSO control)” value in series [1] is listed as “Reduced BrdU immunoreactivity”. Besides, the “levels of secreted sAPP in conditioned media” value in the series with sAPP is reported as “reduced”. In series [2], the “average diameter of neurospheres” value was “reduced the average diameter of neurospheres”.

With `CC(C)C[C@H](NC(=O)[C@H](Cc1ccccc1)C[C@@H](O)[C@H](Cc1ccccc1)NC(=O)OC(C)(C)C)C(=O)N[C@@H](Cc1ccccc1)C(N)=O` [L-685,458], the “BrdU+ immunoreactivity (percentage of DMSO-treated NSCs)” value in series [3] was “Reduced BrdU+ immunoreactivity; also recorded: reduced neural stem cell proliferation”. In addition, in the series on neural stem cells (FIG. 8E), the GFAP immunostaining entry is given as “Positive staining of GFAP”. In addition, the “neural progenitor cell differentiation” value with neural stem cells (differentiation medium, compared to DMSO, FIGS. 8B-8F) was “induced neural progenitor cell differentiation”. The “immunostaining for β-tubulin and GFAP” value with neural stem cells (neurospheres on laminin, FIG. 8F) is “increased immunostaining for both β-tubulin and GFAP”. Also, in the series on neural stem cells (twenty four hours on laminin, FIG. 8F), the “differentiation of whole neurospheres cultured on laminin” value is “extensive differentiation”. Besides, the “number of differentiated cells” value in the series on neural stem cells (two-day treatment, compared to control, FIG. 8C) was “increased number of differentiated cells”. For the same molecule, the “number of GFAP+Nestin+DCX+ cells” value in the series on neural stem cells (two-day treatment, compared to control, FIG. 8H) is “dramatically decreased; also recorded: decrease”. For the same molecule, the “number of neurospheres formed from singly-dissociated neurosphere cells” value with neural stem cells (two-day treatment, compared with control, FIG. 8D) is listed as “reduced number of neurospheres”.
